Data on 28 compounds can be found in patent EP3789378A1, “PIPERIDINES OR PIPERIDONES SUBSTITUTED WITH UREA AND HETEROARYL” (Grünenthal GmbH, priority 2019, dated 2021).

The first assay concerns the target T1, h FPR2 (Homo sapiens, UniProt P25090).
T1 construct: expressed in transfected cells
T1 sequence (P25090 1-351): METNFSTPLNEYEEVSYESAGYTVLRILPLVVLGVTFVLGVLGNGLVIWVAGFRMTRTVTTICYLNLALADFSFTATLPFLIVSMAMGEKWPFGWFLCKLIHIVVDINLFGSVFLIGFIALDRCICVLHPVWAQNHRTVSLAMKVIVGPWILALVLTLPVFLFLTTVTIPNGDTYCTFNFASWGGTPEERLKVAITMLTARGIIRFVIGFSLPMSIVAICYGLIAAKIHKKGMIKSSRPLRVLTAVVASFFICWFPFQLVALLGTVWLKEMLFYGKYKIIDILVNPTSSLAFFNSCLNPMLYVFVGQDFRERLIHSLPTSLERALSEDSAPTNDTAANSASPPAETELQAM
Description: Agonistic activity in hFPR2-Aq-CHO cells (FLIPR Calcium 5 fluorescence assay). The class given is cell-based. The following applies: 11 point half log dilution, final assay concentration from 10µM. In a few lines: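 hFPR2-Aq-CHO cells were loaded with Calcium 5 dye for 30 min at 37 °C and equilibrated 10 min at room temperature. Compound (11 points, 10 µM to 100 pM final) was added in HBSS/HEPES/probenecid buffer pH 7.4. Fluorescence rise over basal across 5 min, relative to no-compound wells, gave EC50.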
As a reminder, the EC50 is the concentration giving half of the maximal effect. Consider `COc1cnc([C@@H]2CN(CC3COC3)CC[C@H]2NC(=O)Nc2ccc(Cl)cc2)c(F)c1` (relative stereo) [Ex-200, trans-1-(4-chloro-phenyl)-3-(3-fluoro-5-methoxy-1'-oxetan-3-ylmethyl-1',2',3',4',5',6'-hexahydro-[2,3']bipyridinyl-4'-yl)-urea], for which the EC50 turned out to be 0.4 nM.

On to `COc1ccc([C@@H]2CN(CCCO)CC[C@H]2NC(=O)Nc2ccccc2)nc1` (relative stereo) [Ex-159, trans-1-[1-(3-Hydroxy-propyl)-3-(5-methoxy-pyridin-2-yl)-piperidin-4-yl]-3-phenyl-urea], for which the EC50 worked out at 57 nM.

As to `COc1ccc([C@@H]2CN(C(=O)C3CC(O)C3)CC[C@H]2NC(=O)Nc2cc(C)ns2)nc1` (single isomer, unassigned) [Ex-183, trans-1-[1'-(3-hydroxy-cyclobutanecarbonyl)-5-methoxy-1',2',3',4',5',6'-hexahydro-[2,3']bipyridinyl-4'-yl]-3-(3-methyl-isothiazol-5-yl)-urea], the half-maximal effective concentration (EC50) was 89 nM.

As to `COc1ccc([C@@H]2CN(C(=O)CCO)CC[C@H]2NC(=O)Nc2ccc(Cl)cc2)nc1` (relative stereo) [Ex-102, trans-1-(4-chloro-phenyl)-3-[1'-(3-hydroxy-propionyl)-5-methoxy-1',2',3',4',5',6'-hexahydro-[2,3']bipyridinyl-4'-yl]-urea], the EC50 worked out at 27 nM.

In the case of `Cc1cc(NC(=O)N[C@@H]2CCN(c3ccnc(C(F)(F)F)n3)C[C@H]2c2ccc(Cl)cn2)sn1` (relative stereo) [Ex-28, trans-1-[5-chloro-1'-(2-trifluoromethyl-pyrimidin-4-yl)-1',2',3',4',5',6'-hexahydro-[2,3']bipyridinyl-4'-yl]-3-(3-methyl-isothiazol-5-yl)-urea], the EC50 is 17 nM.

On to `COc1ccc([C@@H]2CN(C(=O)C3CCN(C)CC3)CC[C@H]2NC(=O)Nc2ccc(Cl)cc2)nc1` (single isomer, unassigned) [Ex-188, trans-1-(4-chlorophenyl)-3-[3-(5-methoxypyridin-2-yl)-1-(1-methylpiperidine-4-carbonyl)piperidin-4-yl]urea], for which the EC50 worked out at 29 nM.

As for `O=C(Nc1ccc(Cl)cc1)N[C@@H]1CCN(C(=O)C2CCNCC2)C[C@H]1c1ccc(Cl)s1` (relative stereo) [Ex-130, trans-1-(4-Chlorophenyl)-3-[3-(5-chloro-thiophen-2-yl)-1-(piperidine-4-carbonyl)-piperidin-4-yl]-urea], the EC50 came to 4 nM.

Consider `COc1cnc([C@@H]2CN(CC(N)=O)CC[C@H]2NC(=O)Nc2ccc(Cl)cc2)c(F)c1` (relative stereo) [Ex-222, trans-2-{4'-[3-(4-chlorophenyl)-ureido]-3-fluoro-5-methoxy-3',4',5',6'-tetrahydro-2'H-[2,3']bipyridinyl-1'-yl}-acetamide], for which the EC50 amounted to 0.3 nM.

For `COc1ccc([C@@H]2CN(CC3CCNCC3)CC[C@H]2NC(=O)Nc2ccc(Cl)cc2)nc1` (single isomer, unassigned) [Ex-82, trans-1-(4-chlorophenyl)-3-(3-(5-methoxypyridin-2-yl)-1-(piperidin-4-ylmethyl)piperidin-4-yl)urea], the EC50 is 37 nM.

In the case of `COc1ccc([C@@H]2CN(c3ccc(F)cc3)C(=O)C[C@H]2NC(=O)Nc2ccc(Cl)cc2)cn1` (relative stereo) [Ex-5, trans-1-(4-chlorophenyl)-3-[-1-(4-fluorophenyl)-5-(6-methoxypyridin-3-yl)-2-oxopiperidin-4-yl]urea], the EC50 was 0.16 nM.

In the case of `COc1ccc([C@@H]2CN(Cc3cc(C(F)(F)F)on3)CC[C@H]2NC(=O)Nc2ccc(Cl)cc2)nc1` (single isomer, unassigned) [Ex-37, trans-1-(4-chlorophenyl)-3-[3-(5-methoxypyridin-2-yl)-1-{[5-(trifluoromethyl)-1,2-oxazol-3-yl]methyl}piperidin-4-yl]urea], the EC50 was found to be 0.13 nM.

Consider `Cc1cc(NC(=O)N[C@@H]2CCN(Cc3cc(C)on3)C[C@H]2c2ccc(Cl)s2)sn1` (single isomer, unassigned) [Ex-48, trans-1-[3-(5-chlorothiophen-2-yl)-1-[(5-methyl-1,2-oxazol-3-yl)methyl]piperidin-4-yl]-3-(3-methyl-1,2-thiazol-5-yl)urea], for which the EC50 worked out at 72 nM.

Take `COc1ccc([C@@H]2CN(CC3(OC)CC3)CC[C@H]2NC(=O)Nc2ccc(Cl)cc2)nc1` (relative stereo) [Ex-201, trans-1-(4-chloro-phenyl)-3-[5-methoxy-1'-(1-methoxy-cyclopropylmethyl)-1',2',3',4',5',6'-hexahydro-[2,3']bipyridinyl-4'-yl]-urea]: the EC50 was determined as 0.6 nM.

Turning to `COc1cnc([C@@H]2CN(C3COC3)CC[C@H]2NC(=O)Nc2ccc(Cl)cc2)c(F)c1` (relative stereo) [Ex-218, trans-1-(4-chloro-phenyl)-3-(3-fluoro-5-methoxy-1'-oxetan-3-yl-1',2',3',4',5',6'-hexahydro-[2,3']bipyridinyl-4'-yl)-urea], the EC50 was determined as 4 nM.

For `COC1CCC(C(=O)N2CC[C@@H](NC(=O)Nc3ccc(Cl)cc3)[C@H](c3ccc(Cl)s3)C2)CC1` (relative stereo) [Ex-107, trans-1-(4-chloro-phenyl)-3-[3-(5-chloro-thiophen-2-yl)-1-(4-methoxy-cyclohexanecarbonyl)-piperidin-4-yl]-urea], the EC50 worked out at 46 nM.

On to `COc1ccc([C@@H]2CN(C(=O)C3CCNCC3)CC[C@H]2NC(=O)Nc2ccc(Cl)cc2)nc1` (relative stereo) [Ex-88, trans-1-(4-chloro-phenyl)-3-[5-methoxy-1'-(piperidine-4-carbonyl)-1',2',3',4',5',6'-hexahydro-[2,3']bipyridinyl-4'-yl]-urea], for which the EC50 was 1.2 nM.

As for `COc1ccc([C@H]2CN(CC(=O)N(C)C)CC[C@@H]2NC(=O)Nc2ccc(Cl)cc2)nc1` [Ex-216], the EC50 amounted to 2 nM.

For the compound `O=C(Nc1ccc(Cl)cc1)N[C@@H]1CCN(Cc2ccc(C3CC3)nc2)C[C@H]1c1ccc(Cl)s1` (relative stereo) [Ex-73, trans-1-(4-chlorophenyl)-3-[3-(5-chlorothiophen-2-yl)-1-[(6-cyclopropylpyridin-3-yl)methyl]piperidin-4-yl]urea], the EC50 turned out to be 4 nM.

Turning to `COc1ccc([C@@H]2CN(C(=O)c3ccc(C(F)(F)F)nc3)CC[C@H]2NC(=O)Nc2ccc(Cl)cc2)nc1` (single isomer, unassigned) [Ex-100, trans-1-(4-chlorophenyl)-3-[3-(5-methoxypyridin-2-yl)-1-{[6-(trifluoromethyl)pyridin-3-yl]carbonyl}piperidin-4-yl]urea], the half-maximal effective concentration (EC50) came out at 93 nM.

On to `COc1ccc([C@@H]2CN(C(=O)C3CNC3)CC[C@H]2NC(=O)Nc2ccccc2)nc1` (racemic) [Ex-165, trans-1-[1-(Azetidine-3-carbonyl)-3-(5-methoxy-pyridin-2-yl)-piperidin-4-yl]-3-phenyl-urea], for which the EC50 is 11 nM.

Consider `COc1ccc([C@@H]2CN(CCCN(C)C)CC[C@H]2NC(=O)Nc2ccc(Cl)cc2)nc1` (relative stereo) [Ex-111, trans-1-(4-chloro-phenyl)-3-[1'-(3-dimethylaminopropyl)-5-methoxy-1',2',3',4',5',6'-hexahydro-[2,3']bipyridinyl-4'-yl]-urea], for which the EC50 was 0.2 nM.

Turning to `COc1ccc([C@@H]2CN(c3ccc(F)cc3)C(=O)C[C@H]2NC(=O)Nc2ccc(Cl)cc2)nc1` (relative stereo) [Ex-10, trans-1-(4-chlorophenyl)-3-[1-(4-fluorophenyl)-5-(5-methoxypyridin-2-yl)-2-oxopiperidin-4-yl]urea], the EC50 turned out to be 0.05 nM.

For `O=C(Nc1ccc(Cl)cc1)N[C@@H]1CC(=O)N(c2ccc(F)cc2)C[C@H]1c1ccc(Cl)cn1` (relative stereo) [Ex-14, trans-1-(4-chlorophenyl)-3-[5-(5-chloropyridin-2-yl)-1-(4-fluorophenyl)-2-oxopiperidin-4-yl]urea], the EC50 came out at 0.4 nM.

For `CS(=O)(=O)n1ccc(CN2CC[C@@H](NC(=O)Nc3ccc(Cl)cc3)[C@H](c3ccc(Cl)s3)C2)n1` (single isomer, unassigned) [Ex-78, trans-1-(4-chlorophenyl)-3-[3-(5-chlorothiophen-2-yl)-1-[(1-methanesulfonyl-1H-pyrazol-3-yl)methyl]piperidin-4-yl]urea], the EC50 was 52 nM.

Consider `COc1ccc([C@@H]2CN(c3ccc(F)cc3)CC[C@H]2NC(=O)Nc2ccc(Cl)cc2)nc1` (relative stereo) [Ex-18, trans-1-(4-chloro-phenyl)-3-[1'-(4-fluoro-phenyl)-5-methoxy-1',2',3',4',5',6'-hexahydro-[2,3']bipyridinyl-4'-yl]-urea], for which the EC50 was 0.8 nM.

Staying with this assay, now noted: agonistic response at 0.1µM.
Consider `COc1ccc([C@@H]2CN(Cc3ccn(S(C)(=O)=O)n3)CC[C@H]2NC(=O)Nc2ccccc2)nc1` (relative stereo) [Ex-59, trans-3-[1-[(1-methanesulfonyl-1H-pyrazol-3-yl)methyl]-3-(5-methoxypyridin-2-yl)piperidin-4-yl]-1-phenylurea], for which the activation at 0.1 µM was determined as 26%.

With `COc1ccc([C@@H]2CN(Cc3ccn(C)n3)CC[C@H]2NC(=O)Nc2ccc(Cl)cc2)nc1` (relative stereo) [Ex-40, trans-1-(4-chlorophenyl)-3-[3-(5-methoxypyridin-2-yl)-1-[(1-methyl-1H-pyrazol-3-yl)methyl]piperidin-4-yl]urea], the activation at 0.1 µM was 10%.

As to `COc1ccc([C@@H]2CN(C3COC3)CC[C@H]2NC(=O)Nc2ccccc2)nc1` (relative stereo) [Ex-162, trans-1-[3-(5-Methoxy-pyridin-2-yl)-1-(oxetan-3-yl)-piperidin-4-yl]-3-phenyl-urea], the activation at 0.1 µM came to 34%.
